In US6514968B1, “Aminoalkoxy carbazoles for the treatment of cns diseases” (Pharmacia & Upjohn Company, priority 1999, dated 2003):
Counter-ions that a name gives are not always drawn.

What was measured:
[1] = biological target: T1, cloned human 5-HT6 receptor (Homo sapiens, UniProt P50406); experiment: 5-HT6 Receptor Binding Assay; conditions: [3H]-lysergic acid diethylamide (LSD) radioligand, membranes of Hela cells containing the cloned human 5-HT6 receptor, SPA beads; estimated IC50 converted to Ki by Cheng-Prusoff
T1 construct: host or cells: HeLa cells (G-418 selection), membrane preparation
T1 sequence (P50406 whole entry): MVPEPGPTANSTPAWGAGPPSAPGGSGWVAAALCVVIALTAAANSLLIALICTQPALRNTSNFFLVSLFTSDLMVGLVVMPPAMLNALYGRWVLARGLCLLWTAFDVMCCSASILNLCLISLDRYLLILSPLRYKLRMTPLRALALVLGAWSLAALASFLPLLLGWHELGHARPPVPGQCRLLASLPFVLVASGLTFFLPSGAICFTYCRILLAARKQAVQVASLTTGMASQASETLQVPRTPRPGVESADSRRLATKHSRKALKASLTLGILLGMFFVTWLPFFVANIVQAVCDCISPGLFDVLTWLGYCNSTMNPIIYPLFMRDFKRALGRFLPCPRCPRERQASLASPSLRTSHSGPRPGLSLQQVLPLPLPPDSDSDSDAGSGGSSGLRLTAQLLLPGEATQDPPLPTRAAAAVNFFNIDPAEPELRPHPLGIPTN
Experimental: 5-HT6 Receptor Binding Assay
Growth of Cells and Membrane Preparation
Hela cells containing the cloned human 5-HT6 receptor were acquired from Dr. David R. Sibley's laboratory in National Institute of Health (see Sibley, D. R., J. Neurochemistry, 66, 47-56, 1996). Cells were grown in high glucose Dulbecco's modified Eagle's medium, supplemented with L-glutamine, 0.5% sodium pyruvate, 0.3% penicillin-streptomycin, 0.025% G-418 and 5% Gibco fetal bovine serum and then were harvested, when confluent, in cold phosphate-buffered saline.
Harvested intact cells were washed once in cold phosphate-buffered saline. The cells were pelleted and resuspended in 100 ml of cold 50 mM Tris, 5 mM EDTA and 5 mM EGTA, pH 7.4. Homogenization was with a Vir Tishear generator, 4 cycles for 30 seconds each at setting 50. The homogenized cells were centrifuged at 700 RPM (1000×g) for 10 minutes and the supernatant was removed. The pellet was resuspended in 100 ml of the above buffer and rehomogenized for 2 cycles. The rehomogenized cells were then centrifuged at 700 RPM (1000×g) for 10 minutes and the supernatant was removed. The combined supernatant (200ml) was centrifuged at 23,000 RPM (80,000×g) for 1 hour in a Beckman Rotor (42.1 Ti). The membrane pellet was resupended in 50-8-ml of assay buffer containing HEPES 20 mM, MgCl2 10 mM, NaCl 150 mM, EDTA 1 mM, pH 7.4 and stored frozen in aliqouts at −70° C.
The radioligand binding assay used [^3H]-lysergic acid diethylamide (LSD). The assay was carried out in Wallac 96-well sample plates by the addition of 11 μl of the test sample at the appropriate dilution (the assay employed 11 serial concentrations of samples run in duplicate), 11 μl of radioligand, and 178 μl of a washed mixture of WGA-coated SPA beads and membranes in binding buffer. The plates were shaken for about 5 minutes and then incubated at room temperature for 1 hour. The plates were then loaded into counting cassettes and counted in a Wallac MicroBeta Trilux scintillation counter.
Binding Constant (Ki) Determination
Eleven serial dilutions of test compounds were distributed to assay plates using the PE/Cetus Pro/Pette pipetter. These dilutions were, followed by radioligand and the bead-membrane mixture prepared as described above. The specifically bound cpm obtained were fit to a one-site binding model using GraphPad Prism ver. 2.0. Estimated IC50 values were converted to Ki values using the Cheng-Prusoff equation (Cheng, Y. C. et al., Biochem. Pharmacol., 22, 3099-108, 1973).

melting point [°C] | Ki [1] [nM] | SMILES
> 256 | – | NCCOc1cccc2c1c1ccccc1n2Cc1csc2ccc(Cl)cc12 (as salt: methane sulfonate) [Example 50, 2-({9-[(5-Chloro-1-benzothiophen-3-yl)methyl]-9H-carbazol-4-yl}oxy)ethylamine]
228.5 to 229 | – | Cc1nc(Cn2c3ccccc3c3c(OCCN)cccc32)cs1 (as salt: methane sulfonate) [Example 51, 2-({9-[(2-Methyl-1,3-thiazol-4-yl)methyl]-9H-carbazol-4-yl}oxy)ethylamine]
187.5 to 188 | 6.1 | Cc1ccc2c(c1)c1c(OCCN)cccc1n2Cc1ccccc1.O=C(O)/C=C\C(=O)O [Example 46, 2-[(9-Benzyl-6-methyl-9H-carbazol-4-yl)oxy]ethylamine]
96 to 96.75 | 2.2 | CNCCOc1cccc2c1c1cc(C)ccc1n2Cc1ccccc1 [Example 47, N-{2-[(9-Benzyl-6-methyl-9H-carbazol-4-yl)oxy]ethyl}-N-methylamine]
160 | 4.5 | O=C(O)/C=C\C(=O)O.OCCNCCOc1cccc2c1c1ccccc1n2Cc1ccccc1 [Example 49, 2-({2-[(9-benzyl-9H-carbazol-4-yl)oxy]ethyl}amino)-1-ethanol]
– | 127 | NCCOc1cccc2c1c1ccccc1n2Cc1cccc(Br)c1 [Example 53, 2-{[9-(3-Bromobenzyl)-9H-carbazol-4-yl]oxy}ethylamine]
– | 101 | NCCOc1cccc2c1c1ccccc1n2Cc1cccc(F)c1 [Example 54, 2-{[9-(3-Fluorobenzyl)-9H-carbazol-4-yl]oxy}ethylamine]
– | 482 | Cc1ccc(Cn2c3ccccc3c3c(OCCN)cccc32)cc1 [Example 55, 2-{[9-(4-Methylbenzyl)-9H-carbazol-4-yl]oxy}ethylamine]
– | 119 | NCCOc1cccc2c1c1ccccc1n2Cc1ccccc1F [Example 56, 2-{[9-(2-Fluorobenzyl)-9H-carbazol-4-yl]oxy}ethylamine]
– | 110 | COc1cccc(Cn2c3ccccc3c3c(OCCN)cccc32)c1 [Example 57, 2-{[9-(3-Methoxybenzyl)-9H-carbazol-4-yl]oxy}ethylamine]
– | 20 | Cc1cccc(Cn2c3ccccc3c3c(OCCN)cccc32)c1 [Example 59, 2-{[9-(3-Methylbenzyl)-9H-carbazol-4-yl]oxy}ethylamine]
– | 27 | COc1ccc2c(c1)c1c(OCCN)cccc1n2Cc1ccccc1 [Example 61, 2-[(9-Benzyl-6-methoxy-9H-carbazol-4-yl)oxy]ethylamine]
– | 60 | COc1ccc2c3c(OCCN)cccc3n(Cc3ccccc3)c2c1 [Example 62, 2-[(9-Benzyl-7-methoxy-9H-carbazol-4-yl)oxy]ethylamine]

Continued, molecule first:

SMILES | melting point [°C] | Ki [1] [nM]
CCN(CC)CCOc1cccc2c1c1ccccc1n2Cc1ccccc1 [Example 1, N-{2-[(9-Benzyl-9H-carbazol-4-yl)oxy]ethyl}-N,N-diethylamine] | 79 to 80.5 | 24
CCN(CC)CCOc1cccc2c1c1cccc(Cl)c1n2Cc1ccccc1 [Example 2, N-{2-[(9-Benzyl-8-chloro-9H-carbazol-4-yl)oxy]ethyl}-N,N-diethylamine] | 73.5 to 75 | 6
CCN(CC)CCOc1cccc2c1c1cccc(Cl)c1n2Cc1ccc(F)cc1 [Example 3, N-(2-{[8-Chloro-9-(4-fluorobenzyl)-9H-carbazol-4-yl]oxy}ethyl)-N,N-diethylamine] | 104.5 to 105.5 | 22
CCN(CC)CCOc1cccc2c1c1cccc(F)c1n2Cc1ccccc1 [Example 7, N-{2-[(9-Benzyl-8-fluoro-9H-carbazol-4-yl)oxy]ethyl}-N,N-diethylamine] | 60 to 60.5 | 2.6
O=CNCCOc1cccc2c1c1ccccc1n2Cc1ccccc1 [Example 33, N-{2-[(9-benzyl-9H-carbazol-4-yl)oxy]ethyl}formamide] | 161 to 162 | 211
CNCCOc1cccc2c1c1ccccc1n2Cc1ccccc1.O=C(O)/C=C\C(=O)O [Example 34, N-{2-[(9-Benzyl-9H-carbazol-4-yl)oxy]ethyl}-N-methylamine] | 182.5 to 184.5 | 5.7
COCCNCCOc1cccc2c1c1ccccc1n2Cc1ccccc1.O=C(O)/C=C\C(=O)O [Example 36, N-{2-[(9-Benzyl-9H-carbazol-4-yl)oxy]ethyl}-N-(2-methoxyethyl)amine] | 175 to 175.5 | 16
c1ccc(Cn2c3ccccc3c3c(OCCN4CCCCC4)cccc32)cc1 [Example 39, 9-Benzyl-4-[2-(1-piperidinyl)ethoxy]-9H-carbazole] | 113.5 to 114.5 | 12
NCCOc1cccc2c1c1cccc(F)c1n2Cc1ccccc1 [Example 41, 2-[(9-Benzyl-8-fluoro-9H-carbazol-4-yl)oxy]ethylamine] | 122.25 to 123 | 2.4
CCN(CC)CCOc1cccc2c1c1cccc(F)c1n2Cc1ccc(F)cc1 [Example 42, N,N-Diethyl-N-(2-{[8-fluoro-9-(4-fluorobenzyl)-9H-carbazol-4-yl]oxy}ethyl)amine] | 59 to 60 | 20
CCN(CC)CCOc1cccc2c1c1cc(Cl)ccc1n2Cc1ccccc1 [Example 43, N-{2-[(9-Benzyl-6-chloro-9H-carbazol-4-yl)oxy]ethyl}-N,N-diethylamine] | 96 to 97.5 | 182
CCN(CC)CCOc1cccc2c1c1cc(F)ccc1n2Cc1ccccc1 [Example 44, N-{2-[(9-Benzyl-6-fluoro-9H-carbazol-4-yl)oxy]ethyl}-N,N-diethylamine] | 68 to 69 | 180
